Like-named read-outs stand apart in the source and are kept apart here.
Columns and labels:
[1] = system: CFU-GM in mouse femoral marrow; settings: in vivo
Text: Mouse spleen conditioned-medium, at a concentration of 2%, was used in this assay. The medium and semi-solid culture mix were procured from Stem Cell Technologies in Vancouver, BC.

[2] = system: polymorphonuclear leukocytes; settings: U.S. Pat. No. 4,636,507; cited from earlier work
PAPH = PAPH inhibition / DAG production in TNF-stimulated human mesangial cells; format: cell-based; settings: specific activation pathway that does not involve PI
Text: These inventive compounds and pharmaceutical compositions are capable of, among other things, inhibiting subspecies of LPAAT and PAPH enzymes with substrate specificity for intermediates with 1,2-diunsaturated and 1-alkyl, 2-unsaturated subspecies. […] In contrast, the inventive compounds affect that subset of PAPH and LPAAT relating to substrates with unsaturated fatty acids other than arachidonate in the sn-2 position, not the housekeeping forms of these enzymes that serve the PI pathway.

[3] = system: tumor necrosis factor, TNF; settings: cited from earlier work

CFU-GM in mouse femoral marrow [1] | Compound | chemotaxis in polymorphonuclear leukocytes [2] | inhibition of PAPH (PAPH) | BMT-related complications ([3]; co-administered PTX and GM-CSF, allogeneic bone marrow transplant patients) | TNF levels ([3]; co-administered PTX and GM-CSF, patients undergoing allogeneic bone marrow transplant) | TNF levels ([3]; normal volunteers)
no CFU-GM were detectable | O=c1[nH]cc(F)c(=O)[nH]1 [5-fluorouracil] |  |  |  |  | 
 | CC(O)CCCCn1c(=O)c2c(ncn2C)n(C)c1=O (stereo not shown) [M1, 1-(5-hydroxyhexyl)-3,7-dimethylxanthine] | enhance chemotaxis |  |  |  | 
 | CC(=O)CCCCn1c(=O)c2c(ncn2C)n(C)c1=O [PTX, 1-(5-oxohexyl)-3,7-dimethylxanthine] | enhance chemotaxis | blocks PAPH | reduced BMT-related complications | decreased levels of tumor necrosis factor, TNF | TNF levels were higher

— patent US5801182A, “Amine substituted compounds” (Cell Therapeutics, Inc., priority 1995, dated 1998)
